In US8022099B2, “N-benzyl pyrrolidine derivatives” (Hoffmann-La Roche Inc., priority 2008, dated 2011):

Key:
[1] = molecular target: T1, human NK3 receptor (Homo sapiens, UniProt P29371); test: [3H]SR142801 competition binding assay; details: hNK3 receptor binding, [3H]SR142801, membranes from HEK293 cells transiently expressing recombinant human NK3 receptor
T1 construct: expressed in transfected cells; host or cells: HEK293 cells (transient expression), membrane preparation
T1 sequence (P29371 1-465): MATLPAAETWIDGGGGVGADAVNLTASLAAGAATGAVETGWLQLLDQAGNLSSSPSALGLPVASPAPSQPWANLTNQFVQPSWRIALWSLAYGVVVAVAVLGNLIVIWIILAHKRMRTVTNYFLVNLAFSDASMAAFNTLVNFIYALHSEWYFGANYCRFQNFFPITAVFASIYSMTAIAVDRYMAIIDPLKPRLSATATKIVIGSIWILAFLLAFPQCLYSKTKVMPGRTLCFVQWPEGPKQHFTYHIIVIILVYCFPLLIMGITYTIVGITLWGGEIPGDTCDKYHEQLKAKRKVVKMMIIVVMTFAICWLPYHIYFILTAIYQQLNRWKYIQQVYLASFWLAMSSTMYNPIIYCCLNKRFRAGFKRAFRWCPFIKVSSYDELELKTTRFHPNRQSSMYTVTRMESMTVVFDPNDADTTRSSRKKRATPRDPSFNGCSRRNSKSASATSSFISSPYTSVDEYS
Outline: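 Membranes from HEK293 cells transiently expressing human NK3 were incubated 75 min at RT with [3H]SR142801 at its KD and inhibitor (0.0003-10 μM) in Tris-HCl pH 7.4/MnCl2/phosphoramidon/BSA. Nonspecific binding used 10 μM SB222200. Ki from Hill-fitted IC50 via Cheng-Prusoff, duplicate determinations.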

[2] = phase II trial, cited from earlier work

Row | Structure (SMILES) | Ki [1] [nM] | activity on positive symptoms of schizophrenia ([2]; altered behaviour, delusion, hallucinations, extreme emotions, excited motor activity, incoherent speech) | activity in the treatment of negative symptoms of schizophrenia ([2]; depression, anhedonia, social isolation, memory and attention deficits)
1 | CN(Cc1ccc(C(F)(F)F)c(F)c1)[C@H]1CN(C(=O)CN2CCC(N(C)S(C)(=O)=O)CC2)C[C@@H]1c1ccc(Cl)c(Cl)c1 (racemic) [Example 144, N-[1-(2-{(3SR,4RS)-3-(3,4-Dichloro-phenyl)-4-[(3-fluoro-4-trifluoromethyl-benzyl)-methyl-amino]-pyrrolidin-1-yl}-2-oxo-ethyl)-piperidin-4-yl]-N-methyl-methanesulfonamide] | 5.9 |  | 
2 | CN(Cc1ccc(C(F)(F)F)c(F)c1)[C@H]1CN(C(=O)CN2CCC(N3CCOCC3=O)CC2)C[C@@H]1c1ccc(Cl)c(Cl)c1 (racemic) [Example 145, 4-[1-(2-{(3SR,4RS)-3-(3,4-Dichloro-phenyl)-4-[(3-fluoro-4-trifluoromethyl-benzyl)-methyl-amino]-pyrrolidin-1-yl}-2-oxo-ethyl)-piperidin-4-yl]-morpholin-3-one] | 13.7 |  | 
3 | CN(Cc1ccc(C(F)(F)F)c(F)c1)[C@H]1CN(C(=O)CN2CCC(N3CCCCC3=O)CC2)C[C@@H]1c1ccc(Cl)c(Cl)c1 (racemic) [Example 146, 1′-(2-{(3SR,4RS)-3-(3,4-Dichloro-phenyl)-4-[(3-fluoro-4-trifluoromethyl-benzyl)-methyl-amino]-pyrrolidin-1-yl}-2-oxo-ethyl)-[1,4′]bipiperidinyl-2-one] | 14.9 |  | 
4 | CC(=O)N(C)C1CCN(CC(=O)N2C[C@H](c3ccc(Cl)c(Cl)c3)[C@@H](N(C)Cc3ccc(C(F)(F)F)c(F)c3)C2)CC1 (racemic) [Example 147, N-[1-(2-{(3SR,4RS)-3-(3,4-Dichloro-phenyl)-4-[(3-fluoro-4-trifluoromethyl-benzyl)-methyl-amino]-pyrrolidin-1-yl}-2-oxo-ethyl)-piperidin-4-yl]-N-methyl-acetamide] | 13.8 |  | 
5 | CN(Cc1ccc(C(F)(F)F)c(F)c1)[C@H]1CN(C(=O)C2CCN(C(=O)C3(C)CC3)CC2)C[C@@H]1c1ccc(Cl)c(Cl)c1 (racemic) [Example 149, {(3SR,4RS)-3-(3,4-Dichloro-phenyl)-4-[(3-fluoro-4-trifluoromethyl-benzyl)-methyl-amino]-pyrrolidin-1-yl}-[1-(1-methyl-cyclopropanecarbonyl)-piperidin-4-yl]-methanone] | 3.1 |  | 
6 | CN(Cc1ccc(C(F)(F)F)c(F)c1)[C@H]1CN(C(=O)N2CCN(c3ncccc3C#N)CC2)C[C@@H]1c1ccc(Cl)c(Cl)c1 [Example 71, 2-(4-{(3S,4R)-3-(3,4-Dichloro-phenyl)-4-[(3-fluoro-4-trifluoromethyl-benzyl)-methyl-amino]-pyrrolidine-1-carbonyl}-piperazin-1-yl)-nicotinonitrile] | 13.4 |  | 
7 | COCCCCC(=O)N1C[C@H](c2ccc(Cl)c(Cl)c2)[C@@H](N(C)Cc2ccc(C(F)(F)F)c(F)c2)C1 [Example 99, 1-{(3S,4R)-3-(3,4-Dichloro-phenyl)-4-[(3-fluoro-4-trifluoromethyl-benzyl)-methyl-amino]-pyrrolidin-1-yl}-5-methoxy-pentan-1-one] | 36.6 |  | 
8 | CN(Cc1ccc(C(F)(F)F)c(F)c1)[C@H]1CN(C(=O)CCN2CCOCC2)C[C@@H]1c1ccc(Cl)c(Cl)c1 [Example 110, 1-{(3S,4R)-3-(3,4-Dichloro-phenyl)-4-[(3-fluoro-4-trifluoromethyl-benzyl)-methyl-amino]-pyrrolidin-1-yl}-3-morpholin-4-yl-propan-1-one] | 26.7 |  | 
9 | CN(Cc1ccc(C(F)(F)F)c(F)c1)[C@H]1CN(C(=O)CN2CCS(=O)(=O)CC2)C[C@@H]1c1ccc(Cl)c(Cl)c1 [Example 135, 1-{(3S,4R)-3-(3,4-Dichloro-phenyl)-4-[(3-fluoro-4-trifluoromethyl-benzyl)-methyl-amino]-pyrrolidin-1-yl}-2-(1,1-dioxo-λ^6-thiomorpholin-4-yl)-ethanone] | 43.7 |  | 
10 | CC(=O)N(C)C1(c2ccccc2)CCN(CCC[C@]2(c3ccc(Cl)c(Cl)c3)CCCN(C(=O)c3ccccc3)C2)CC1 [SR 142,801, Osanetant] |  | active | inactive
